Measured values taken from PMC4669759 (Cell Death & Disease, 2015).

How the values were obtained:
MCL-1–BIM complexes = biological target: T1, MCL-1–BIM complexes (Homo sapiens, UniProt Q07820); assay: Co-immunoprecipitation–electrochemiluminescent ELISA of MCL-1–BIM complexes in H929 cells; type: cell-based; conditions: 4 h
T1 construct: endogenous in cells; host or cells: H929
Experimental: (§1) (a) H929 cells were treated with increasing concentrations of A-1210477 for 4 h. […] All data represent the mean of triplicate experiments, with error bars indicating the S.D. (b) Quantitative measurement of protein–protein interactions using a luciferase-based mammalian two-hybrid assay. […] All data represent the means of triplicate experiments, with error bars indicating the S.Ds.
After compound treatments, cells were lysed in buffer containing 1% CHAPS, 10 mM HEPES, and 150 mM NaCl with protease inhibitor cocktail (Roche, Indianapolis, IN, USA). In all, 100 μg of cell lysate was added to each well of a Meso Scale Discovery (Rockville, MD, USA) 96-well plate precoated with biotinylated anti-MCL-1 antibody (clone RC13) from Thermo Fisher Scientific. MCL-1-BIM complexes were detected with rabbit anti-BIM antibody (clone Y36) from Abcam, followed by Sulfo-tagged anti-rabbit antibody (Meso Scale Discovery; cat no. R32AB-5) and Meso Scale Discovery reading buffer with surfactant (cat. no. R92TC-2) according to the manufacturer's recommendations. Each step was followed by washing three times with PBS-T (PBS+0.1% Tween-20).

[1] = set-up: method as in PMID 25679114; conditions: cited from earlier work
H929 cells = assay: Cell viability, H929 cells; type: cell-based, human; conditions: H929, 48 h
Experimental: Figure 4 Indole-2-carboxylic acids induce the hallmarks of apoptosis in MCL-1-dependent cancer cell line H929. (a) Digitonin-permeabilized H929 cells were treated with 10 μM BH3 peptides for 4 h, and intact H929 cells were incubated with increasing concentrations (0.1–10 μM) of A-1208746 for 4 h before assessing the levels of cytochrome c released into the cytosol. (b) H929 and RS4;11 cells were incubated with increasing concentrations of MCL-1 inhibitors or the BCL-2-selective inhibitor ABT-199 (venetoclax) for 48 h before determining cell viability. Cell killing IC50s are plotted with each value representing the mean of three separate experiments. Error bars represent the S.E.M. (c) H929 cells were incubated with increasing concentrations of MCL-1 inhibitors in the presence or absence of the pan-caspase inhibitor QVD (100 μM) for 4 h before assessing caspase-3/-7 activation, mitochondrial membrane polarization, and the exposure of phosphatidylserine. […]
Adherent cell lines were seeded at 50 000 cells per well in 96-well plates and treated for 48 h with compounds diluted in half-log steps starting at 30 μM and ending at 0.001 μM. […] Effects on proliferation and viability were determined using CellTiter-Glo reagent from Promega (Madison, WI, USA) according to the manufacturer's instructions. IC50 values were determined by non-linear regression analysis of the concentration response data.

H23 cells = assay: Navitoclax / A-1210477 combination cell viability, H23 cells; type: cell-based, human; conditions: H23, 48 h
Experimental: Figure 6 A-1210477 synergizes with navitoclax to kill hematological and solid tumor cell lines. BxPC-3, EJ-1, H23, and OPM-2 cells were treated with increasing concentrations of navitoclax in the presence or absence of increasing concentrations of A-1210477 for 48 h before assessing cell viability. All data points represent the means of triplicate experiments, with error bars indicating the S.E.M. TEXT PRINTED IN THE PICTURE: A-1210477 + navitoclax: Bliss sum (BxPC-3): 716; Bliss sum (EJ-1): 464; Bliss sum (H23): 76; Bliss sum (OPM-2): 946 DOUBTS OF THE COPYIST ABOUT THIS PICTURE: The Bliss sums apply to the combination of A-1210477 and navitoclax. The picture prints the two names separately (legend heading and axis title), not as one joined label.
Adherent cell lines were seeded at 50 000 cells per well in 96-well plates and treated for 48 h with compounds diluted in half-log steps starting at 30 μM and ending at 0.001 μM. Multiple myeloma cell lines were seeded at 15 000–20 000 cells per well and treated similarly. Effects on proliferation and viability were determined using CellTiter-Glo reagent from Promega (Madison, WI, USA) according to the manufacturer's instructions. IC50 values were determined by non-linear regression analysis of the concentration response data.

BCL-2–BIM interactions = biological target: T2, BCL-2–BIM interactions (Homo sapiens, UniProt P10415); assay: Mammalian two-hybrid assay, BCL-2–BIM, HeLa cells; type: cell-based; conditions: 24 h, luciferase two-hybrid
T2 construct: expressed in transfected cells; host or cells: HeLa cells stably expressing a GAL4-luciferase reporter
T2 sequence (P10415 whole entry, the tested form may be a part): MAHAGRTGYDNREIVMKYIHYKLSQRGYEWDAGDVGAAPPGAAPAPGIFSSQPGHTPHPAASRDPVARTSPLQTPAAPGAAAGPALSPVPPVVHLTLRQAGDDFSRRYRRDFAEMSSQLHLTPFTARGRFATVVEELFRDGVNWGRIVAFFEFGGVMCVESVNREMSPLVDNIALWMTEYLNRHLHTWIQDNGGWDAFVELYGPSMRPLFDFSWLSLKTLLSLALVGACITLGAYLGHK
Experimental: as §1
HeLa cells stably expressing a GAL4-luciferase reporter were seeded into 10 cm dishes at 5 × 10^5 cells per plate. In all, 24 μg of a plasmid expressing both the ‘bait' and ‘prey' fusion proteins (GAL4DBD-BIM and VP16AD-BCL-2, GAL4DBD-BCL-XL and VP16AD- BCL-XS, or GAL4DBD-MCL-1 and VP16AD-NOXA, respectively) were mixed with 1.5 ml OptiMEM (Invitrogen). Separately, 24 μl Lipofectamine 2000 (Invitrogen) were mixed with 1.5 ml OptiMEM. Both solutions were incubated for 5 min (RT) and then mixed together for 20 min. Three milliliters of the mixture was added to cells in 12 ml culture medium lacking antibiotics, incubated at 37 °C for 24 h, and then transferred to 96-well plates at 20 000 cells per well. Compounds were added in half-log dilutions, starting from 1 μM and ending at 0.0001 μM for 24 h, and luciferase activity was assessed using ONE-Glo reagent (Promega). All data were plotted as the percentage of complex remaining relative to untreated controls.

T1 sequence (Q07820 whole entry, one chain of several): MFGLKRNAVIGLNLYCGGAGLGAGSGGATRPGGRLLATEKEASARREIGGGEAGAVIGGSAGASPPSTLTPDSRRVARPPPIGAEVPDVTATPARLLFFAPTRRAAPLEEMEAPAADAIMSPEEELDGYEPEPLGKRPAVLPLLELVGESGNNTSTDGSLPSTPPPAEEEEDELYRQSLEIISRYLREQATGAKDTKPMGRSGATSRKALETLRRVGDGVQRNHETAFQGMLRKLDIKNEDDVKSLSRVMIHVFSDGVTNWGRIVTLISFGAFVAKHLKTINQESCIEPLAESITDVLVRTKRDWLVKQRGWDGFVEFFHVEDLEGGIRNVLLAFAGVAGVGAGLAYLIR

Cc1nn(C)c(COc2ccc(N3CCN(S(=O)(=O)N(C)C)CC3)cc2)c1-c1cccc2c(CCCOc3cccc4ccccc34)c(C(=O)O)n(CCN3CCOCC3)c12 [A-1210477]
IC50, reduction of BIM co-immunoprecipitated with MCL-1 (MCL-1–BIM complexes): low-μM range
human protein binding [1]: > 99%
cell killing IC50 (H929 cells): low-μM range
potentiation of navitoclax (H23 cells): substantially shifted the dose–response curve of navitoclax
effect on BCL-2–BIM interactions (BCL-2–BIM interactions): no effect
